Test results as given in patent US6514692B2, “Method for treatment of immunodeficiency virus infection” (priority 1996, dated 2003).
“And” between values parts separate entries of the source, which are not always exact repeats. Identical values can stand only once. Like-named read-outs stand apart in the source and are kept apart here.

What was measured:
SK1 isolate of HIV-1 = details: for p24 VALUES, single samples: samples 1-3; for IC50 (inhibition of cell-cell transmission): linear regression
Source text: (§1) ME180 cells, a cervical epithelial cell line, were obtained from the American Type Culture Collection. These cells were thawed from liquid nitrogen and grown in RPMI 1640 medium supplemented with 10t fetal bovine serum, glutamine and antibiotics. The cells were adherent and were trypsinized (0.5% trypsin in HBSS) to remove them from the flask for passaging and use in assays. For use in the microtiter transmission inhibition assay, ME180 cells were trypsinized, washed and seeded in 96-well flat bottom microtiter plates (COSTAR) at a density of 5×10^3 cells per well. The cells were incubated at 37° C. for 24 hours prior to the tart of the assay. H9 cells chronically infected with he SK1 isolate of HIV-1 were treated with 200 μg/ml mitomycin C for 60 minutes at 37° C. After treatment the cells were washed three times with tissue culture medium. The chronically infected lymphocytes were added to each well at a density of 2×10^4 cells per well. The concentration of mitomycin C used in the treatment of the lymphocytes was chosen to allow lymphocyte survival for the period of time required to transmit virus to the uninfected ME180 cells, but to die prior to the time of assay so as not to contribute to the p24 signal used as the endpoint (see below). In the transmission assay the lytic peptides D4E1 and D2A21, with and without 150 μg/ml pig mucin, were added prior to the addition of chronically infected cells or were mixed with the chronically infected cells prior to their addition to the monolayer of ME180 cells. Mucin was included because it is an abundant constituent of the normal vaginal secretions of a human being, thus any chemotherapeutic agent targeting HIV should be active in its presence if it is to have clinical value. […] The lymphocytes and peptide were co-cultured with the ME180 cells for 6 hours and then removed by washing the ME180 monolayer four times with PBS. The plate was then incubated at 37° C. for six days. Medium was removed and changed every 48 hours during the incubation stage. No further peptide was added after the initial dose. At six days post-co-cultivation, the supernatant was removed from the wells and evaluated for the quantity of p24 antigen by ELISA. The ELISA was performed according to the manufacturer's recommendations. The amount of virus production in wells treated with various concentrations of the peptides was evaluated with appropriate cell and virus controls. Data are reported as a percent of virus control at each drug concentration. Linear regression analysis was used to calculate the […] and IC95 concentrations of the transmission inhibitor. […] TI represents the toxicity index, which is the ratio of the TC50/IC50, and is an indication of the relative concentrations window that exists between efficacy and toxicity.

ME180 cells = test: toxicity (XTT) in transmission inhibition assay; details: for TOXICITY VALUES (XTT), single samples: samples 1-3; for TC50 (concentration at which 50% of cells are eliminated): interpolation from % CC
Source text: as §1

[1] = 0.32 μg/ml, with 150 μg/ml pig mucin
[2] = 1 μg/ml, with 150 μg/ml pig mucin
[3] = 3.2 μg/ml, with 150 μg/ml pig mucin
[4] = 10 μg/ml, with 150 μg/ml pig mucin
[5] = 32 μg/ml, with 150 μg/ml pig mucin
[6] = 100 μg/ml, with 150 μg/ml pig mucin

Dextran
% VC (p24, percent of virus control) (SK1 isolate of HIV-1; 0.32 μg/ml, no mucin): 93.4% | p24 VALUES, MEAN (SK1 isolate of HIV-1; 0.32 μg/ml, no mucin): 51.0 µg/mL | p24 VALUES, single samples (SK1 isolate of HIV-1; 0.32 μg/ml, no mucin): 52.2 µg/mL and 52.5 µg/mL and 48.2 µg/mL | % VC (p24, percent of virus control) (SK1 isolate of HIV-1; [1]): 90.6% | p24 VALUES, MEAN (SK1 isolate of HIV-1; [1]): 56.2 µg/mL | p24 VALUES, single samples (SK1 isolate of HIV-1; [1]): 56.2 µg/mL and 53.5 µg/mL and 58.9 µg/mL | % VC (p24, percent of virus control) (SK1 isolate of HIV-1; 1 μg/ml, no mucin): 100.2% | p24 VALUES, MEAN (SK1 isolate of HIV-1; 1 μg/ml, no mucin): 54.7 µg/mL | p24 VALUES, single samples (SK1 isolate of HIV-1; 1 μg/ml, no mucin): 53.5 µg/mL and 57.0 µg/mL | % VC (p24, percent of virus control) (SK1 isolate of HIV-1; [2]): 86.72% | p24 VALUES, MEAN (SK1 isolate of HIV-1; [2]): 53.1 µg/mL | p24 VALUES, single samples (SK1 isolate of HIV-1; [2]): 51.0 µg/mL and 57.5 µg/mL and 50.9 µg/mL | % VC (p24, percent of virus control) (SK1 isolate of HIV-1; 3.2 μg/ml, no mucin): 91.4% | p24 VALUES, MEAN (SK1 isolate of HIV-1; 3.2 μg/ml, no mucin): 49.9 µg/mL | p24 VALUES, single samples (SK1 isolate of HIV-1; 3.2 μg/ml, no mucin): 50.3 µg/mL and 47.2 µg/mL and 52.2 µg/mL | % VC (p24, percent of virus control) (SK1 isolate of HIV-1; [3]): 88.2% | p24 VALUES, MEAN (SK1 isolate of HIV-1; [3]): 54.7 µg/mL | p24 VALUES, single samples (SK1 isolate of HIV-1; [3]): 52.1 µg/mL and 54.7 µg/mL and 57.3 µg/mL | % VC (p24, percent of virus control) (SK1 isolate of HIV-1; 10 μg/ml, no mucin): 84.1% | p24 VALUES, MEAN (SK1 isolate of HIV-1; 10 μg/ml, no mucin): 45.9 µg/mL | p24 VALUES, single samples (SK1 isolate of HIV-1; 10 μg/ml, no mucin): 45.3 µg/mL and 45.7 µg/mL and 46.6 µg/mL | % VC (p24, percent of virus control) (SK1 isolate of HIV-1; [4]): 92.6% | p24 VALUES, MEAN (SK1 isolate of HIV-1; [4]): 57.5 µg/mL | p24 VALUES, single samples (SK1 isolate of HIV-1; [4]): 53.2 µg/mL and 58.1 µg/mL and 61.1 µg/mL | % VC (p24, percent of virus control) (SK1 isolate of HIV-1; 32 μg/ml, no mucin): 96.0% | p24 VALUES, MEAN (SK1 isolate of HIV-1; 32 μg/ml, no mucin): 52.4 µg/mL | p24 VALUES, single samples (SK1 isolate of HIV-1; 32 μg/ml, no mucin): 51.9 µg/mL and 53.2 µg/mL and 52.0 µg/mL | % VC (p24, percent of virus control) (SK1 isolate of HIV-1; [5]): 102.7% | p24 VALUES, MEAN (SK1 isolate of HIV-1; [5]): 63.7 µg/mL | p24 VALUES, single samples (SK1 isolate of HIV-1; [5]): 65.5 µg/mL and 60.5 µg/mL and 65.1 µg/mL | % VC (p24, percent of virus control) (SK1 isolate of HIV-1; 100 μg/ml, no mucin): 94.5% | p24 VALUES, MEAN (SK1 isolate of HIV-1; 100 μg/ml, no mucin): 51.6 µg/mL | p24 VALUES, single samples (SK1 isolate of HIV-1; 100 μg/ml, no mucin): 52.6 µg/mL and 52.0 µg/mL and 50.1 µg/mL | % VC (p24, percent of virus control) (SK1 isolate of HIV-1; [6]): 104.2% | p24 VALUES, MEAN (SK1 isolate of HIV-1; [6]): 64.6 µg/mL | p24 VALUES, single samples (SK1 isolate of HIV-1; [6]): 63.7 µg/mL and 59.6 µg/mL and 70.6 µg/mL | IC50 (inhibition of cell-cell transmission) (SK1 isolate of HIV-1; no mucin): IC50 = 100 μg/ml | IC50 (inhibition of cell-cell transmission) (SK1 isolate of HIV-1; with 150 μg/ml pig mucin): IC50 = 100 μg/ml | % CC (XTT, percent of cell control) (ME180 cells; 0.32 μg/ml, no mucin): 90.1% | TOXICITY VALUES (XTT), MEAN (ME180 cells; 0.32 μg/ml, no mucin): 0.458 O.D. @ 450/650 nm | TOXICITY VALUES (XTT), single samples (ME180 cells; 0.32 μg/ml, no mucin): 0.462 O.D. @ 450/650 nm and 0.463 O.D. @ 450/650 nm and 0.488 O.D. @ 450/650 nm | % CC (XTT, percent of cell control) (ME180 cells; [1]): 90.1% | TOXICITY VALUES (XTT), MEAN (ME180 cells; [1]): 0.458 O.D. @ 450/650 nm | TOXICITY VALUES (XTT), single samples (ME180 cells; [1]): 0.462 O.D. @ 450/650 nm and 0.463 O.D. @ 450/650 nm and 0.448 O.D. @ 450/650 nm | % CC (XTT, percent of cell control) (ME180 cells; 1 μg/ml, no mucin): 88.1% | TOXICITY VALUES (XTT), MEAN (ME180 cells; 1 μg/ml, no mucin): 0.447 O.D. @ 450/650 nm | TOXICITY VALUES (XTT), single samples (ME180 cells; 1 μg/ml, no mucin): 0.425 O.D. @ 450/650 nm and 0.457 O.D. @ 450/650 nm and 0.450 O.D. @ 450/650 nm | % CC (XTT, percent of cell control) (ME180 cells; [2]): 88.1% | TOXICITY VALUES (XTT), MEAN (ME180 cells; [2]): 0.447 O.D. @ 450/650 nm | TOXICITY VALUES (XTT), single samples (ME180 cells; [2]): 0.425 O.D. @ 450/650 nm and 0.467 O.D. @ 450/650 nm and 0.450 O.D. @ 450/650 nm | % CC (XTT, percent of cell control) (ME180 cells; 3.2 μg/ml, no mucin): 91.1% | TOXICITY VALUES (XTT), MEAN (ME180 cells; 3.2 μg/ml, no mucin): 0.463 O.D. @ 450/650 nm | TOXICITY VALUES (XTT), single samples (ME180 cells; 3.2 μg/ml, no mucin): 0.477 O.D. @ 450/650 nm and 0.453 O.D. @ 450/650 nm and 0.459 O.D. @ 450/650 nm | % CC (XTT, percent of cell control) (ME180 cells; [3]): 91.1% | TOXICITY VALUES (XTT), MEAN (ME180 cells; [3]): 0.463 O.D. @ 450/650 nm | TOXICITY VALUES (XTT), single samples (ME180 cells; [3]): 0.477 O.D. @ 450/650 nm and 0.453 O.D. @ 450/650 nm and 0.459 O.D. @ 450/650 nm | % CC (XTT, percent of cell control) (ME180 cells; 10 μg/ml, no mucin): 92.0% | TOXICITY VALUES (XTT), MEAN (ME180 cells; 10 μg/ml, no mucin): 0.467 O.D. @ 450/650 nm | TOXICITY VALUES (XTT), single samples (ME180 cells; 10 μg/ml, no mucin): 0.468 O.D. @ 450/650 nm and 0.467 O.D. @ 450/650 nm | % CC (XTT, percent of cell control) (ME180 cells; [4]): 92.0% | TOXICITY VALUES (XTT), MEAN (ME180 cells; [4]): 0.467 O.D. @ 450/650 nm | TOXICITY VALUES (XTT), single samples (ME180 cells; [4]): 0.468 O.D. @ 450/650 nm and 0.467 O.D. @ 450/650 nm | % CC (XTT, percent of cell control) (ME180 cells; 32 μg/ml, no mucin): 91.7% | TOXICITY VALUES (XTT), MEAN (ME180 cells; 32 μg/ml, no mucin): 0.466 O.D. @ 450/650 nm | TOXICITY VALUES (XTT), single samples (ME180 cells; 32 μg/ml, no mucin): 0.457 O.D. @ 450/650 nm and 0.438 O.D. @ 450/650 nm and 0.493 O.D. @ 450/650 nm | % CC (XTT, percent of cell control) (ME180 cells; [5]): 91.7% | TOXICITY VALUES (XTT), MEAN (ME180 cells; [5]): 0.466 O.D. @ 450/650 nm | TOXICITY VALUES (XTT), single samples (ME180 cells; [5]): 0.467 O.D. @ 450/650 nm and 0.438 O.D. @ 450/650 nm and 0.493 O.D. @ 450/650 nm | % CC (XTT, percent of cell control) (ME180 cells; 100 μg/ml, no mucin): 97.8% | TOXICITY VALUES (XTT), MEAN (ME180 cells; 100 μg/ml, no mucin): 0.497 O.D. @ 450/650 nm | TOXICITY VALUES (XTT), single samples (ME180 cells; 100 μg/ml, no mucin): 0.481 O.D. @ 450/650 nm and 0.491 O.D. @ 450/650 nm and 0.519 O.D. @ 450/650 nm | % CC (XTT, percent of cell control) (ME180 cells; [6]): 97.8% | TOXICITY VALUES (XTT), MEAN (ME180 cells; [6]): 0.497 O.D. @ 450/650 nm | TOXICITY VALUES (XTT), single samples (ME180 cells; [6]): 0.481 O.D. @ 450/650 nm and 0.491 O.D. @ 450/650 nm and 0.519 O.D. @ 450/650 nm | TC50 (concentration at which 50% of cells are eliminated) (ME180 cells; no mucin): TC50 = 100 μg/ml | TC50 (concentration at which 50% of cells are eliminated) (ME180 cells; with 150 μg/ml pig mucin): TC50 = 100 μg/ml
